The target in test [1] is dopaminergic receptors D3 (Homo sapiens, UniProt P35462). Description: Radioligand binding assay, dopaminergic D3 receptors. As to conditions: test compound 1×10^−6 M. The method in brief: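 Scintillation read-out. Specific = total − nonspecific (excess cold ligand). Data as % of control specific binding / % inhibition; IC50 by Hill fit; Ki = IC50/(1+L/KD), KD from Scatchard plot.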

The next test deals with T1, 5-HT7 receptor (Homo sapiens, UniProt P34969).
T1 construct: purchased PerkinElmer
T1 sequence (P34969 whole entry): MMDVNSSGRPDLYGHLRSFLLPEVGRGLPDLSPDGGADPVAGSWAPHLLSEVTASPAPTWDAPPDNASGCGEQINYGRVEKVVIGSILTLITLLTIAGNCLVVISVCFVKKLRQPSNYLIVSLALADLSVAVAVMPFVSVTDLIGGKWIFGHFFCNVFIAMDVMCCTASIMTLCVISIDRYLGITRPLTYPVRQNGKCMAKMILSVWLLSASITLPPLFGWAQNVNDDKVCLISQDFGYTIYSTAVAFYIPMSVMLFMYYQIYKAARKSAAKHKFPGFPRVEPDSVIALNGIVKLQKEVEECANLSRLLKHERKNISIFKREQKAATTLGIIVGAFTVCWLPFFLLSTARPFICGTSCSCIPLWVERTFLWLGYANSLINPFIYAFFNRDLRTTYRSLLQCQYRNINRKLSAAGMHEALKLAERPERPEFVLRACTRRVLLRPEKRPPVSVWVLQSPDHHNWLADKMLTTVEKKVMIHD
Kind of test: Radioligand binding assay, serotoninergic 5-HT7 receptors. Conditions: binding assay result in %, Table 5a. Summed up:
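Ki values used the Cheng–Prusoff equation, with KD from Scatchard analysis, applied to IC50 from Hill fits of human 5-HT7 radioligand competition curves. Bound radioligand was counted by scintillation, and excess unlabelled ligand set the non-specific binding.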

Another test has as its target T2, 5-HT2A receptor (Homo sapiens, UniProt P28223).
T2 construct: purchased PerkinElmer
Kind of test: Radioligand binding assay, serotoninergic 5-HT2A receptors. As to conditions: for Ki: read-out: Inhibition constants Ki, 5-HT2A. Summed up:
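Competition curves from scintillation-counted specific binding (total minus binding with excess unlabelled ligand) were Hill-fitted to give IC50, converted to Ki via Cheng-Prusoff using Scatchard-derived Kd.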

The target in test [2] is T3, 5-HT1A receptor (rat hippocampus) (Rattus norvegicus, UniProt P19327).
T3 construct: hippocampus; from tissue; host or cells: rat hippocampus
T3 sequence (P19327 1-422): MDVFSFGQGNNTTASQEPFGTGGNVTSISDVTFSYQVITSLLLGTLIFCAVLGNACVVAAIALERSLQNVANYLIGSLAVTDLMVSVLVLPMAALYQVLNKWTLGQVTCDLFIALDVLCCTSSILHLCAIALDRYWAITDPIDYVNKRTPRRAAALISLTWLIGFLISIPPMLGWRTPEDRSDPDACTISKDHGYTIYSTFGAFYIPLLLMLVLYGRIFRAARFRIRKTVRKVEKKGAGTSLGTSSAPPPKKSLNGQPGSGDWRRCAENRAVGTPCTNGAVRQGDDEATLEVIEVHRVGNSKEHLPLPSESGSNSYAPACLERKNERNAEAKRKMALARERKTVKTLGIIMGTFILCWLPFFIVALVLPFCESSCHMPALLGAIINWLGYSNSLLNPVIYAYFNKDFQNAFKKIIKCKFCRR
Description: Radioligand binding assay, serotoninergic 5-HT1A receptors. Conditions: binding assay result in %, Table 5a.

The target in test [3] is T4, H1 histaminergic receptors (Homo sapiens, UniProt P35367).
T4 construct: expressed in transfected cells; host or cells: HEK-293 cells
T4 sequence (P35367 whole entry): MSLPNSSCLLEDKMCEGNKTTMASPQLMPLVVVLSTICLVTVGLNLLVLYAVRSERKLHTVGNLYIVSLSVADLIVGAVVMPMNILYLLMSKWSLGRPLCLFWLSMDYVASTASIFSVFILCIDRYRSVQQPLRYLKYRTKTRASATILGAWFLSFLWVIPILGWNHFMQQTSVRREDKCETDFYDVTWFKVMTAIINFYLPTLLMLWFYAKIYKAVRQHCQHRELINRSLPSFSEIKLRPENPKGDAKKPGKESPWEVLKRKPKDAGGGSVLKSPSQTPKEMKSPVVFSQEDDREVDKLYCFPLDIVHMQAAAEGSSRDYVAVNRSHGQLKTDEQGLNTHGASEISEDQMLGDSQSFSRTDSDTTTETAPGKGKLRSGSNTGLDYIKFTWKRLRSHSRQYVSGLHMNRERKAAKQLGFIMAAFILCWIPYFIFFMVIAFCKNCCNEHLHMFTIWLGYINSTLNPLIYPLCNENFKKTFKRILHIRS
Kind of test: Radioligand binding assay, histaminergic H1 receptors. As to conditions: human recombinant (HEK-293 cells), [3H]pyrilamine 1 nM. From the text: (§1) The specific ligand binding to the receptors is defined as the difference between the total binding and the non-specific binding determined in the presence of the excess of unlabelled ligand.
(§2) The results are expressed as a percent of control specific binding ((measured specific binding/control specific binding)×100) and as a percent inhibition of control specific binding (100−((measured specific binding/control specific binding)×100)) obtained in the presence of the test compounds. The specific ligand binding to the receptors is defined as the difference between the total binding and the nonspecific binding determined in the presence of an excess of unlabelled ligand. Scintillation counting was the method of detection of ligand binding. The IC50 values (concentration causing a half-maximal inhibition of control specific binding) were determined by non-linear regression analysis of the competition curves generated with mean replicate values using Hill equation curve fitting (Y=D+[(A−D)/(1+(C/C50)nH)], where Y=specific binding, D=minimum specific binding, A=maximum specific binding, C=compound concentration, C50=IC50, and nH=slope factor). This analysis was performed using a software developed at Cerep (Hill software) and validated by comparison with data generated by the commercial software SigmaPlot® 4.0 for Windows® (© 1997 by SPSS Inc.). The inhibition constants (Ki) were calculated using the Cheng Prusoff equation (Ki=IC50/(1+(L/KD)), where L=concentration of radioligand in the assay, and KD=affinity of the radioligand for the receptor). A scatchard plot was used to determine the Kd.
Experimental conditions for tests are given in Table 14, and results of tests for representative compounds are presented in Table 15.

In another test the target is T5, α2C adrenergic receptors (Homo sapiens, UniProt P18825).
T5 construct: expressed in transfected cells; host or cells: CHO cells
T5 sequence (P18825 1-462): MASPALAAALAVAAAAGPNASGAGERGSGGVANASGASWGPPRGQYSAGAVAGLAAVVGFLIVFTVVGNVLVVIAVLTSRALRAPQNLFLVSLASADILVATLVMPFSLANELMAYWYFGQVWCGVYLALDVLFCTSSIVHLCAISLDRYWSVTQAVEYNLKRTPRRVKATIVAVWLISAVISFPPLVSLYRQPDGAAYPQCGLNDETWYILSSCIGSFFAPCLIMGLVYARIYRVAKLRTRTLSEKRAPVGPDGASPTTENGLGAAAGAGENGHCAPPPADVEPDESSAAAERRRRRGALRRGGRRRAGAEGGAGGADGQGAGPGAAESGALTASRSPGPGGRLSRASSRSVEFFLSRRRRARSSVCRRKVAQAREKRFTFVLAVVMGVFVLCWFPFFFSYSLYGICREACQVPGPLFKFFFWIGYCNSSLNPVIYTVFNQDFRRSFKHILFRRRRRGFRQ
Kind of test: Radioligand binding assay, adrenergic α2C receptors. Conditions: test compound 1×10^−6 M.
From the text: as §1, §2
Experimental conditions for tests are given in Table 7, and results of tests for representative compounds are given in Tables 8 (α1 receptors) and in Tables 9 (α2C receptors).

For the next test, the system named is σ receptors. Description: Radioligand binding assay, σ receptors. As to conditions: rat cerebral cortex, [3H]DTG 8 nM.
From the text: as §1
as §2, with “This analysis was performed using a software developed at Cerep (Hill software) and validated by comparison with data generated by the commercial software SigmaPlot® 4.0 for Windows® (© 1997 by SPSS Inc.).” left out

The mark [4] stands for this setting: binding assay result in %, Table 5a.

The record followed here is US20140135310A1, “SULPHONAMIDE DERIVATIVES OF ALICYCLIC AMINES FOR THE TREATMENT OF CENTRAL NERVOUS SYSTEM DISEASES” (Adamed Sp. z o.o., priority 2011, published 2014).

As a reminder, the inhibition is the change of the read-out against control, counted positive when it falls. Usually Ki stands for the dissociation constant of the complex between target and ligand, obtained from inhibition or displacement.

dopaminergic receptors D3, sequence (P35462 whole entry): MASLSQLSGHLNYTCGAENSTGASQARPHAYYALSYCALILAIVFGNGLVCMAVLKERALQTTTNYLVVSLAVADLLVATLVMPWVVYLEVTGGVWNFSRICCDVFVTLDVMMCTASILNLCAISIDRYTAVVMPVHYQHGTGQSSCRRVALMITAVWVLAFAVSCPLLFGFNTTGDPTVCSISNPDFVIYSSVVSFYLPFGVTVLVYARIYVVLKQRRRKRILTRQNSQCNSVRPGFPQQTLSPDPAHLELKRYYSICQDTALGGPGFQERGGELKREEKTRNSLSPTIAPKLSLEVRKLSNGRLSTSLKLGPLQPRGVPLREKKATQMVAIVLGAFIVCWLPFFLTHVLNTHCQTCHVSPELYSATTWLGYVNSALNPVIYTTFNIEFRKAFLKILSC
T2 sequence (P28223 whole entry): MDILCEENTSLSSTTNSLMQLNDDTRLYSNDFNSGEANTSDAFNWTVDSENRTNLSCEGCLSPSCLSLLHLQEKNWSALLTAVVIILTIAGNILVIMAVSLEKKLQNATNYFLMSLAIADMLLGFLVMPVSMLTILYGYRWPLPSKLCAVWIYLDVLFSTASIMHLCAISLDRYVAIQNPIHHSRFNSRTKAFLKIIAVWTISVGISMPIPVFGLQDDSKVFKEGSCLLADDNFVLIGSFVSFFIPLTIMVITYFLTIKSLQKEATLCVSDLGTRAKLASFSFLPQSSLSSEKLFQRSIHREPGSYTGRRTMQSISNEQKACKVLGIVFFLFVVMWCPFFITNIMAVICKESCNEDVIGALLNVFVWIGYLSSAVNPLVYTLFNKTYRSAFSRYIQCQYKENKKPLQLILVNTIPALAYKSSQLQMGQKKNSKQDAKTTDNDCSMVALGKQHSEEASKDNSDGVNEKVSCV

As for `O=S(=O)(N[C@@H]1CCN(CCCc2noc3cc(F)ccc23)C1)c1cc2ccccc2s1` [Compound 196, N-[(3R)-1-[3-(6-Fluoro-1,2-benzoxazol-3-yl)propyl]pyrrolidin-3-yl]benzo-thiophene-2-sulphonamide], the inhibition at 1 µM was 94% in test [1]; 101% on 5-HT7 receptor; 100% on 5-HT2A receptor (setting [4]); 54% in test [2]; 84% in test [3]; 89% on α2C adrenergic receptors. Moreover, on 5-HT2A receptor, the Ki stood at 400 pM.
As to `O=S(=O)(NCC1CCN(CCCc2noc3cc(F)ccc23)C1)c1cccc2ccccc12` (stereo not shown) [Compound 239, N-[[1-[3-(6-Fluoro-1,2-benzoxazol-3-yl)propyl]pyrrolidin-3-yl]methyl]naphthalene-1-sulphonamide], the inhibition at 1 µM stood at 76% in test [1]; 92% at 5-HT7 receptor; 98% on 5-HT2A receptor (setting [4]); 56% in test [2]; 89% on α2C adrenergic receptors. In the test with σ receptors, the “σ [%]” value came to 97%.
As for `O=S(=O)(NCC1CCN(CCOc2cccc3c2OCCO3)C1)c1cccc(F)c1` (stereo not shown) [Compound 298, N-[[1-[2-(2,3-Dihydro-1,4-benzodioxin-5-yloxy)ethyl]pyrrolidin-3-yl]-methyl]-3-fluoro-benzenesulphonamide], the inhibition at 1 µM in test [1] was determined as 35%; on 5-HT7 receptor it was 93%; on 5-HT2A receptor (setting [4]), 88%; in test [2], 97%; in test [3], 40%; on α2C adrenergic receptors, 94%.
As for `O=S(=O)(N[C@H]1CCN(CCCc2noc3cc(F)ccc23)C1)c1cc2ccccc2s1` [Compound 197, N-[(3S)-1-[3-(6-Fluoro-1,2-benzoxazol-3-yl)propyl]pyrrolidin-3-yl]benzo-thiophene-2-sulphonamide], the inhibition at 1 µM in test [1] was found to be 83%; on 5-HT7 receptor it was 101%; on 5-HT2A receptor (setting [4]) it was 99%; in test [2], 56%; in test [3] it was 76%; at α2C adrenergic receptors it was 90%. For the same compound, the Ki on 5-HT2A receptor came to 700 pM.
For the compound `O=S(=O)(NC1CN(CCOc2cccc3[nH]ccc23)C1)c1cccc2ccccc12` [Compound 49, N-[1-[2-(1H-Indol-4-yloxy)ethyl]azetidin-3-yl]naphthalene-1-sulphonamide], the inhibition at 1 µM in test [1] was 106%; at 5-HT7 receptor, 100%; on 5-HT2A receptor (setting [4]) it was 82%; in test [2], 100%; at α2C adrenergic receptors, 110%. Further, the “σ [%]” value with σ receptors was determined as 50%.
As to `O=S(=O)(N[C@H]1CCN(CCCc2noc3cc(F)ccc23)C1)c1ccc2cc(Cl)ccc2c1` [Compound 201, 6-Chloro-N-[(3S)-1-[3-(6-fluoro-1,2-benzoxazol-3-yl)propyl]pyrrolidin-3-yl]naphthalene-2-sulphonamide], the inhibition at 1 µM was determined as 84% in test [1]; 95% at 5-HT7 receptor; 98% on 5-HT2A receptor (setting [4]); 32% in test [2]; 64% in test [3]; 89% on α2C adrenergic receptors. Further, the Ki at 5-HT2A receptor turned out to be 7000 pM.
As for `O=S(=O)(NCC1CCN(CCOc2cccc3c2OCCO3)C1)c1ccc(Br)cc1` (stereo not shown) [Compound 305, 4-Bromo-N-[[1-[2-(2,3-dihydro-1,4-benzodioxin-5-yloxy)ethyl]pyrrolidin-3-yl]methyl]benzenesulphonamide], the inhibition at 1 µM worked out at 48% in test [1]; 96% on 5-HT7 receptor; 93% at 5-HT2A receptor (setting [4]); 101% in test [2]; 54% in test [3]; 96% on α2C adrenergic receptors.
On to `O=S(=O)(NCC1CCN(CCOc2cccc3c2OCCO3)C1)c1ccc(F)cc1` (stereo not shown) [Compound 300, N-[[1-[2-(2,3-Dihydro-1,4-benzodioxin-5-yloxy)ethyl]pyrrolidin-3-yl]-methyl]-4-fluoro-benzenesulphonamide], for which the inhibition at 1 µM turned out to be 30% in test [1]; 90% at 5-HT7 receptor; 72% at 5-HT2A receptor (setting [4]); 99% in test [2]; 28% in test [3]; 92% at α2C adrenergic receptors.
`O=S(=O)(NCC1CN(CCCc2noc3cc(F)ccc23)C1)c1cc2ccccc2s1` [Compound 127, N-[[1-[3-(6-Fluoro-1,2-benzoxazol-3-yl)propyl]azetidin-3-yl]methyl]benzo-thiophene-2-sulphonamide]: the “D3 [%]” value in test [1] was 79%. Also, on 5-HT7 receptor, the “5-HT7 [%]” value was determined as 96%. Besides, the “5-HT2A [%]” value on 5-HT2A receptor (setting [4]) was 99%. The Ki on 5-HT2A receptor turned out to be 4200 pM. For the same compound, the “5-HT1A [%]” value in test [2] is given as 71%. Also, the inhibition at 1 µM in test [3] was determined as 54%; at α2C adrenergic receptors, 93%.
For `O=S(=O)(NCC1CCN(CCOc2cccc3c2OCCO3)C1)c1cccc(O)c1` (stereo not shown) [Compound 303, N-[[1-[2-(2,3-Dihydro-1,4-benzodioxin-5-yloxy)ethyl]pyrrolidin-3-yl]-methyl]-3-hydroxy-benzenesulphonamide], the inhibition at 1 µM in test [1] was found to be 52%; on 5-HT7 receptor, 98%; on 5-HT2A receptor (setting [4]), 96%; in test [2] it was 96%; in test [3], 68%; at α2C adrenergic receptors, 100%.
As to `Cc1ccc2sc(S(=O)(=O)N[C@H]3CCN(CCCc4noc5cc(F)ccc45)C3)cc2c1` [Compound 229, N-[(3S)-1-[3-(6-Fluoro-1,2-benzoxazol-3-yl)propyl]pyrrolidin-3-yl]-5-methylbenzothiophene-2-sulphonamide], the inhibition at 1 µM worked out at 93% in test [1]; 99% on 5-HT7 receptor; 46% in test [2]; 75% in test [3]; 98% on α2C adrenergic receptors. The Ki at 5-HT2A receptor worked out at 600 pM.
